# Where two headings read alike, the source gives them in different places.
# Experiments:
# human CGRP receptor = human CGRP receptor (Homo sapiens (Human), UniProt O60894+Q16602); assay: cAMP functional assay (HTRF) in SK-N-MC cells; type: cell-based; conditions: read-out: pKb average (converted)
# Protocol: cAMP production following receptor activation was determined using the Homogeneous Time-Resolved Fluorescence (HTRF) cAMP dynamic-2 assay (Cisbio, France). The human neuroblastoma cell line SK-N-MC endogenously expressing the human CGRP receptor was seeded at a density of 12,500 cells/well in solid walled 96 well half area plates (Costar, Catalog Number 3688, Corning Life Sciences, Germany). After 16 h incubation at 37° C. media was removed and cells were incubated at 37° C. for 30 min in serum free media containing 500 μM IBMX (Tocris, Abingdon, UK, Catalog Number 2845) and increasing concentrations of test antagonist. Following this cells were challenged with an EC80 concentration of human CGRP (0.3 nM) for a further 30 min at 37° C. and then cAMP production was determined as manufacturer's instructions before plates were read on a PheraStar fluorescence plate reader (BMG LabTech, Germany). IC50 values were derived from the inhibition curve. The pIC50 values (where pIC50=−log10 IC50) were converted to a functional pKb value using a modified Cheng-Prussoff equation where Kd=agonist EC50 and L hot=agonist challenge concentration. The pKb values of certain compounds of the invention are detailed in Table 3.
# [1] = biological target: Human CGRP receptors (consisting of CRLR and RAMP1) (Homo sapiens (Human), UniProt O60894+Q16602); assay: Radioligand binding assay (3H-telcagepant displacement); conditions: Sf21 cell membranes, 0.5 nM 3H-telcagepant, Ki by Cheng-Prussoff
# Protocol: Human Calcitonin Receptor Like Receptor (CRLR) and human RAMP1 were cloned into Invitrogen's (ThermoFisher Scientific, UK) pFastBac dual expression vector. Transposition of CRLR/RAMP1 DNA was performed using Invitrogen's Bac-to-Bac Baculovirus Expression Systems. P0 baculovirus was generated by transfecting SF9 cells with bacmid DNA using Cellfectin® II transfection reagent (ThermoFisher Scientific, UK, catalog number 10362-100). Following P0 generation P1 virus was then generated ready for large scale infection and membrane preparation. Sf21 cells were grown in expression medium ESF921 (Expression Systems, USA, catalog number 96-001-01) supplemented with 10% heat-inactivated FBS and 1% Pen/Strep and were infected at a cell density of 2.5×10^6 cells/mL and an MOI of 2. Expression was carried out over 48 h in a shaking incubator set at 27° C. The cell culture was centrifuged at 2,500 rcf for 10 min at 4° C. The pellets were resuspended in cold PBS supplemented with Roche's Complete EDTA-free protease inhibitor cocktail tablets (Roche Applied Sciences, catalog number 05056489001), 1 mM PMSF and 1 mM EDTA. The resuspended cell paste was then centrifuged at 3,273 rcf for 12 min at 4° C. The supernatant was discarded and the pellet frozen at −80° C. The cell pellet from a 4 L culture was resuspended in buffer containing 50 mM Hepes pH 7.5, 150 mM NaCl, 8 Roche EDTA-free protease inhibitor cocktail tablets and 1 mM PMSF. The suspension was left stirring at rt for 1 h and then homogenised for 90 s at 9,500 rpm using a VDI 25 (VWR, USA) homogeniser. The cells were then lysed using a Microfluidizer processor M-110L Pneumatic (Microfluidics, USA). After lysis, the mixture was homogenised for 90 s at 9,500 rpm and then centrifuged at 335 rcf for 10 min. The supernatant was then further ultra-centrifuged at 42,000 rpm for 90 min. After ultra-centrifugation, the supernatant was discarded and the pellet was resuspended in 50 mL (25 mL for each 2 L culture) of buffer containing 50 mM Hepes pH 7.5, 150 mM NaCl, 3 Roche EDTA-free protease inhibitor cocktail tablets and 1 mM PMSF. The suspension was then homogenised for 90 s at 9,500 rpm. The resulting membranes were then stored at −80° C.
# Human CGRP receptors (consisting of CRLR and RAMP1) expressed in insect Sf21 cell membrane homogenates were re-suspended in the binding buffer (10 mM HEPES, pH 7.4, 5 mM MgCl2, 0.2% BSA) to a final assay concentration of […]. Saturation isotherms were determined by the addition of various concentrations of ^3H-telcagepant (Ho et al, The Lancet, 2008, 372, 2115) (in a total reaction volume of 250 μL) for 60 min at room temperature. At the end of the incubation, membranes were filtered onto a unifilter, a 96-well white microplate with bonded GF/B filter pre-incubated with 0.5% PEI, with a Tomtec cell harvester and washed 5 times with distilled water. Non-specific binding (NSB) was measured in the presence of 10 nM MK-3207 hydrochloride (CAS No. 957116-20-0). Radioactivity on the filter was counted (1 min) on a microbeta counter after addition of 50 μL of scintillation fluid.
# [2] = Pharmacokinetic profiling in rat; type: in vivo, male Sprague Dawley rats; conditions: male, Sprague Dawley, plasma
# Protocol: Prior to IN dosing rats were anaesthetised with an intramuscular dose of 25-30 mg/kg ketamine cocktail (ketamine, xylazine hydrochloride and acepromazine maleate in saline) and the dose is introduced over 20-30 s via a polyethylene PE-10 tube inserted approximately 5 mm into the nasal cavity of the rat.
# (§1) Following dosing by the routes above blood samples were taken at several time points (typically pre-dose, 0.083, 0.25, 0.5 1, 2, 4, 8 and 24 h) via serial tail vein bleeds (rat) or cephalic or saphenous vein (monkey) from the animal and centrifuged to separate plasma for analysis by LC/MS/MS assay. WinNonlin v6.2 statistics software (Pharsight Corporation, California, USA) was used to generate pharmacokinetic parameters using the non-compartmental model.
# [3] = Thermodynamic solubility profiling; type: physicochemical; conditions: aqueous buffer, thermodynamic from solid
# Protocol: A 50 mM DMSO stock solution of test compound was prepared, and from this, a working solution of 1 mM was prepared by dilution with DMSO. The UV absorbance of working solution was scanned from 220 nm to 1000 nm to identify the wavelength maxima of test compound. The 1 mM working solution was then serially diluted in DMSO to different concentrations to determine linearity/calibration curve. […] The resulting solution was then kept on a RotoSpin shaker at 50 rpm for 24 h at rt before the solution was filtered using 0.45 micron PVDF injector filters in order to remove the insoluble fraction of the compound. Subsequently, 150 uL of the filtrate is taken for quantification using a UV spectrophotometer, acquiring the optical density of standard solutions and test compound at the same wavelength maxima. From the optical density of test compound the thermodynamic solubility is calculated using the linearity/calibration curve and expressed as micromolar (μM). Solubility profiles of certain compounds of the invention are detailed in Table 6.
# [4] = Pharmacokinetic profiling in cynomolgus monkey; type: in vivo, male Cynomolgus Monkeys; conditions: male, plasma, 0.5 mg/kg, acidified saline; for clearance: cynomolgus monkey iv; for bioavailability: cynomolgus monkey sc
# Protocol: as §1
# [5] = PBS buffer pH 7.4, 24 h at rt, read-out: Thermodynamic solubility pH 7.4
# [6] = Sodium Phosphate Buffer pH 6.0, 24 h at rt, read-out: Thermodynamic solubility pH 6
# Sequence of human CGRP receptor (Q16602 23-461): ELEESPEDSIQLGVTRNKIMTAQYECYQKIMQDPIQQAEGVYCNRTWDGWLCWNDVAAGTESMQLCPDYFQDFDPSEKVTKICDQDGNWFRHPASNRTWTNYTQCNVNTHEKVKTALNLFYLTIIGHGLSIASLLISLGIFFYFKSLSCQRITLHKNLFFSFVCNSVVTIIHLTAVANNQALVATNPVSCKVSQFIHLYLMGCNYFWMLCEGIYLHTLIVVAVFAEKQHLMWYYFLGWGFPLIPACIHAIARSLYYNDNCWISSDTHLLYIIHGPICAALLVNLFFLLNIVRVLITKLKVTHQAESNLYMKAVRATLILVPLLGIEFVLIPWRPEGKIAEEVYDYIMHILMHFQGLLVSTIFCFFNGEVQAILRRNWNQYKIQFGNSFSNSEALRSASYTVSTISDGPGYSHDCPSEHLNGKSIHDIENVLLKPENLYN
# Sequence of human CGRP receptor (O60894 27-148): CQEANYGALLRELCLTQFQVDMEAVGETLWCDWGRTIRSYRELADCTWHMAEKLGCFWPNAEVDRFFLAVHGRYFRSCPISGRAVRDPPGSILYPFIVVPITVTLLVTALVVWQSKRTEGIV
# Sequence of Human CGRP receptors (consisting of CRLR and RAMP1) (Q16602 23-461): as the sequence (Q16602 23-461) above
# Sequence of Human CGRP receptors (consisting of CRLR and RAMP1) (O60894 27-148): as the sequence (O60894 27-148) above
Compound,Kb (human CGRP receptor),pKi average [1],bioavailability ([2]; inhaled or intranasal),bioavailability ([2]; sc),"solubility thermodynamic at 24 h [3, 5]","solubility thermodynamic at 24 h [3, 6]",clearance [4],bioavailability [4]
"Cc1cc(C[C@@H](NC(=O)N2CCC(c3cc4ccccc4[nH]c3=O)CC2)C(=O)N2CCC(N3CCC(c4nncn4C)CC3)CC2)cc2cn[nH]c12 [Example 4, N-{(2R)-3-(7-methyl-1H-indazol-5-yl)-1-[4-(4-methyl-4H-1,2,4-triazol-3-yl)-1,4′-bipiperidin-1′-yl]-1-oxopropan-2-yl}-4-(2-oxo-1,2-dihydroquinolin-3-yl)piperidine-1-carboxamide]",0.631 nM,10.0,27%,82%,32 µM,1590 µM,15 mL/min/kg,100%
"NCCCC[C@H](NC(=O)[C@@H](Cc1cc(Br)c(O)c(Br)c1)NC(=O)N1CCC(N2Cc3ccccc3NC2=O)CC1)C(=O)N1CCN(c2ccncc2)CC1 [olcegepant, reference compound]",,,8%,48%,431 µM,150 µM,,
"CCCn1ccnc1C1CCN(C2CCN(C(=O)[C@@H](Cc3cc(C)c4[nH]ncc4c3)NC(=O)N3CCC(c4cc5ccccc5[nH]c4=O)CC3)CC2)CC1 [Example 3, N-{(2R)-3-(7-methyl-1H-indazol-5-yl)-1-oxo-1-[4-(1-propyl-1H-imidazol-2-yl)-1,4′-bipiperidin-1′-yl]propan-2-yl}-4-(2-oxo-1,2-dihydroquinolin-3-yl)piperidine-1-carboxamide]",0.398 nM,9.8,,,2 µM,1250 µM,,
"Cc1cc(C[C@@H](NC(=O)N2CCC(c3cc4ccccc4[nH]c3=O)CC2)C(=O)N2CCC(N3CCC(c4nnc(C(=O)O)[nH]4)CC3)CC2)cc2cn[nH]c12 [Example 9, 5-{1′-[(2R)-3-(7-methyl-1H-indazol-5-yl)-2-({[4-(2-oxo-1,2-dihydroquinolin-3-yl)piperidin-1-yl]carbonyl}amino)propanoyl]-1,4′-bipiperidin-4-yl}-4H-1,2,4-triazole-3-carboxylic Acid]",0.398 nM,10.3,,,,,,
"CCOC(=O)c1nnc(C2CCN(C3CCN(C(=O)[C@@H](Cc4cc(C)c5[nH]ncc5c4)NC(=O)N4CCC(c5cc6ccccc6[nH]c5=O)CC4)CC3)CC2)[nH]1 [Example 6, ethyl 5-{1′-[(2R)-3-(7-methyl-1H-indazol-5-yl)-2-({[4-(2-oxo-1,2-dihydroquinolin-3-yl)piperidin-1-yl]carbonyl}amino)propanoyl]-1,4′-bipiperidin-4-yl}-4H-1,2,4-triazole-3-carboxylate]",0.2 nM,10.2,,,,,,
"Cc1cc(C[C@@H](NC(=O)N2CCC(c3cc4ccc(F)cc4[nH]c3=O)CC2)C(=O)N2CCC(N3CCC(c4nncn4C)CC3)CC2)cc2cn[nH]c12 [Example 5, 4-(7-fluoro-2-oxo-1,2-dihydroquinolin-3-yl)-N-{(2R)-3-(7-methyl-1H-indazol-5-yl)-1-[4-(4-methyl-4H-1,2,4-triazol-3-yl)-1,4′-bipiperidin-1′-yl]-1-oxopropan-2-yl}piperidine-1-carboxamide]",0.631 nM,9.9,,,239 µM,1540 µM,,

# Continued, values first:
Kb (human CGRP receptor),pKi average [1],bioavailability ([2]; inhaled or intranasal),bioavailability ([2]; sc),"solubility thermodynamic at 24 h [3, 5]","solubility thermodynamic at 24 h [3, 6]",clearance [4],bioavailability [4],Compound
0.2 nM,10.3,,,,,,,"Cc1cc(C[C@@H](NC(=O)N2CCC(c3cc4ccccc4[nH]c3=O)CC2)C(=O)N2CCC(N3CCC(c4ncc[nH]4)CC3)CC2)cc2cn[nH]c12 [Example 1, N-[(2R)-1-[4-(1H-imidazol-2-yl)-1,4′-bipiperidin-1′-yl]-3-(7-methyl-1H-indazol-5-yl)-1-oxopropan-2-yl]-4-(2-oxo-1,2-dihydroquinolin-3-yl)piperidine-1-carboxamide]"
0.316 nM,10.0,,,359 µM,1220 µM,,,"Cc1nnc(C2CCN(C3CCN(C(=O)[C@@H](Cc4cc(C)c5[nH]ncc5c4)NC(=O)N4CCC(c5cc6ccccc6[nH]c5=O)CC4)CC3)CC2)[nH]1 [Example 8, N-{(2R)-3-(7-methyl-1H-indazol-5-yl)-1-[4-(5-methyl-4H-1,2,4-triazol-3-yl)-1,4′-bipiperidin-1′-yl]-1-oxopropan-2-yl}-4-(2-oxo-1,2-dihydroquinolin-3-yl)piperidine-1-carboxamide]"
0.316 nM,10.1,25%,69%,18 µM,2040 µM,24 mL/min/kg,100%,"Cc1nc[nH]c1C1CCN(C2CCN(C(=O)[C@@H](Cc3cc(C)c4[nH]ncc4c3)NC(=O)N3CCC(c4cc5ccccc5[nH]c4=O)CC3)CC2)CC1 [Example 2, N-[(2R)-1-[4-(4-methyl-1H-imidazol-5-yl)-1,4′-bipiperidin-1′-yl]-3-(7-methyl-1H-indazol-5-yl)-1-oxopropan-2-yl]-4-(2-oxo-1,2-dihydroquinolin-3-yl)piperidine-1-carboxamide]"
0.316 nM,9.8,,,342 µM,785 µM,,,"Cc1cc(C[C@@H](NC(=O)N2CCC(c3cc4ccccc4[nH]c3=O)CC2)C(=O)N2CCC(N3CCC(c4nnc[nH]4)CC3)CC2)cc2cn[nH]c12 [Example 7, N-{(2R)-3-(7-methyl-1H-indazol-5-yl)-1-oxo-1-[4-(4H-1,2,4-triazol-3-yl)-1,4′-bipiperidin-1′-yl]propan-2-yl}-4-(2-oxo-1,2-dihydroquinolin-3-yl)piperidine-1-carboxamide]"
